Test results taken from patent publication US20240327393A1 (SIRONAX LTD., priority 2021, published 2024).

The compounds below were run on HT-1080 (ATCC, CCL-121) cells (assay: HT-1080 cell viability assay with ferroptosis inducer RSL3 (Cell Titer-Glo)). Details: HT-1080 cells treated with RSL3; 3-fold, 10-point dilution, 1.1 μM highest concentration; Table 3; read-out: EC50 (nM), ferroptosis inhibitory activity.
Type: cell-based
Method in brief: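 EC50 was derived by sigmoidal dose-response regression of CellTiter-Glo luminescence viability, expressed relative to untreated wells. Compounds were tested in a ten-point, threefold dilution series (highest 1.1 μM) in the presence of the ferroptosis inducer RSL3. HT-1080 cells had been seeded at 6000 per well and grown overnight first.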

| EC50 [nM] | SMILES |
| --- | --- |
| 0.1 to 100 | Cc1cc(N2CCC(C(F)(F)F)C2)ccc1Nc1ccc2c(c1)OCC(=O)N2 (stereo not drawn) [Compound 502, 7-((2-methyl-4-(3-(trifluoromethyl)pyrrolidin-1-yl)phenyl)amino)-2H-benzo[b][1,4]oxazin-3(4H)-one] |

Same assay, conditions: Homo sapiens; HT-1080 cells treated with RSL3; 3-fold, 10-point dilution, 1.1 μM highest concentration; Table 2; read-out: EC50 (nM), ferroptosis inhibitory activity

| EC50 [nM] | SMILES |
| --- | --- |
| 0.1 to 100 | CC1CN(c2ccc(Nc3ccc4c(c3)OCC(=O)N4C)cc2N(C)C)CC(C)O1 (stereo not drawn) [Compound 20, 7-((3-(dimethylamino)-4-(2,6-dimethylmorpholino)phenyl)amino)-4-methyl-2H-benzo[b][1,4]oxazin-3(4H)-one] |
| 0.1 to 100 | COc1cc(Nc2ccc3c(c2)n(C)c(=O)n3C)cc(OC)c1OC [Compound 312, 1,3-dimethyl-5-((3,4,5-trimethoxyphenyl)amino)-1,3-dihydro-2H-benzo[d]imidazol-2-one] |
| 0.1 to 100 | Cn1c(=O)n(C)c2cc(Nc3ccc(N4CCC(C)(O)CC4)cc3)ccc21 [Compound 341, 5-((4-(4-hydroxy-4-methylpiperidin-1-yl)phenyl)amino)-1,3-dimethyl-1,3-dihydro-2H-benzo[d]imidazol-2-one] |
| 0.1 to 100 | Cc1cc(N2CCC(C)CC2)c(Cl)cc1Nc1ccc2c(c1)n(C)c(=O)n2C [Compound 265, 5-((5-chloro-2-methyl-4-(4-methylpiperidin-1-yl)phenyl)amino)-1,3-dimethyl-1,3-dihydro-2H-benzo[d]imidazol-2-one] |
| 0.1 to 100 | CCn1c(=O)cnc2cc(Nc3ccc(N4CCC(C(F)(F)F)CC4)cc3)ccc21 [Compound 116, 1-ethyl-6-((4-(4-(trifluoromethyl)piperidin-1-yl)phenyl)amino) quinoxalin-2(1H)-one] |
| 0.1 to 100 | CN1Cc2cc(Nc3ccc(N4CC5(CCC5)C4)cc3)ccc2C1=O [Compound 244, 5-((4-(2-azaspiro[3.3]heptan-2-yl)phenyl)amino)-2-methylisoindolin-1-one] |
| 0.1 to 100 | O=C1c2ccc(Nc3ccc(N4CCC(C(F)(F)F)CC4)cc3)cc2CN1C1CC1 [Compound 209, 2-cyclopropyl-5-((4-(4-(trifluoromethyl)piperidin-1-yl)phenyl)amino) isoindolin-1-one] |
| 0.1 to 100 | O=C1CCc2cc(Nc3ccc(N4CCC(C(F)(F)F)CC4)cc3)ccc2N1 [Compound 158, 6-((4-(4-(trifluoromethyl)piperidin-1-yl)phenyl)amino)-3,4-dihydroquinolin-2(1H)-one] |
| 0.1 to 100 | CCN(CCCOC)c1ccc(Nc2ccc3c(c2)OCC(=O)N3C)cc1 [Compound 31, 7-((4-(ethyl(3-methoxypropyl)amino)phenyl)amino)-4-methyl-2H-benzo[b][1,4]oxazin-3(4H)-one] |
| 0.1 to 100 | Cc1cc(N2CCC(C(F)(F)F)CC2)ccc1Nc1ccc2c(c1)CNC2 [Compound 410, N-(2-methyl-4-(4-(trifluoromethyl)piperidin-1-yl)phenyl) isoindolin-5-amine] |
| 0.1 to 100 | CN1C(=O)COc2cc(Nc3ccc(N4CCC(C(F)(F)F)CC4)cc3)cc(F)c21 [Compound 88, 5-fluoro-4-methyl-7-((4-(4-(trifluoromethyl)piperidin-1-yl)phenyl)amino)-2H-benzo[b][1,4]oxazin-3(4H)-one] |
| 0.1 to 100 | CNCCN1C(=O)COc2cc(Nc3ccc(N4CC(C)OC(C)C4)cc3)ccc21 (stereo not drawn) [Compound 53, 7-((4-(2,6-dimethylmorpholino)phenyl)amino)-4-(2-(methylamino)ethyl)-2H-benzo[b][1,4]oxazin-3(4H)-one] |
| 0.1 to 100 | CC1CCCCN1c1ccc(Nc2ccc3c(c2)n(C)c(=O)n3C)cc1 (stereo not drawn) [Compound 368, 1,3-dimethyl-5-((4-(2-methylpiperidin-1-yl)phenyl)amino)-1,3-dihydro-2H-benzo[d]imidazol-2-one] |
| 0.1 to 100 | Cn1cncc1CN1Cc2cc(Nc3ccc(N4CCC(C(F)(F)F)CC4)cc3)ccc2C1=O [Compound 248, 2-((1-methyl-1H-imidazol-5-yl)methyl)-5-((4-(4-(trifluoromethyl)piperidin-1-yl)phenyl)amino)isoindolin-1-one] |
| 0.1 to 100 | CN1Cc2cc(Nc3ccc(N4CCC(C(F)(F)F)CC4)cc3)ccc2N(C)C1=O [Compound 112, 1,3-dimethyl-6-((4-(4-(trifluoromethyl)piperidin-1-yl)phenyl)amino)-3,4-dihydroquinazolin-2(1H)-one] |
| 0.1 to 100 | CCN1Cc2cc(Nc3cc(F)c(N4CCC(C)CC4)c(F)c3)ccc2C1=O [Compound 193, 5-((3,5-difluoro-4-(4-methylpiperidin-1-yl)phenyl)amino)-2-ethylisoindolin-1-one] |
| 0.1 to 100 | Cc1cc(N2CCC(C(F)(F)F)CC2)ncc1Nc1ccc2c(c1)n(C)c(=O)n2C [Compound 379, 1,3-dimethyl-5-((4-methyl-6-(4-(trifluoromethyl)piperidin-1-yl)pyridin-3-yl)amino)-1,3-dihydro-2H-benzo[d]imidazol-2-one] |
| 0.1 to 100 | CN1Cc2cc(Nc3ccc(N4CCC(C(F)(F)F)CC4)cc3)cc(Cl)c2C1=O [Compound 203, 7-chloro-2-methyl-5-((4-(4-(trifluoromethyl)piperidin-1-yl)phenyl)amino) isoindolin-1-one] |
| 100 to 1000 | Cn1c(=O)n(C)c2cc(Nc3ccsc3)ccc21 [Compound 342, 1,3-dimethyl-5-(thiophen-3-ylamino)-1,3-dihydro-2H-benzo[d]imidazol-2-one] |
| 0.1 to 100 | CC1CCN(c2ccc(Nc3ccc4c(c3)ncc(=O)n4C)cc2)CC1 [Compound 115, 1-methyl-6-((4-(4-methylpiperidin-1-yl)phenyl)amino)quinoxalin-2(1H)-one] |
| 0.1 to 100 | CC(C)N1Cc2cc(Nc3ccc(N4CCC(C(F)(F)F)CC4)cc3)ccc2C1=O [Compound 210, 2-isopropyl-5-((4-(4-(trifluoromethyl)piperidin-1-yl)phenyl)amino) isoindolin-1-one] |
| 0.1 to 100 | Cc1c(Nc2ccc3c(c2)OCC(=O)N3C)ccc(N2CCC(C(F)(F)F)CC2)c1F [Compound 63, 7-((3-fluoro-2-methyl-4-(4-(trifluoromethyl)piperidin-1-yl)phenyl)amino)-4-methyl-2H-benzo[b][1,4]oxazin-3(4H)-one] |

Same assay, conditions: Homo sapiens; HT-1080 cells treated with RSL3; 3-fold, 10-point dilution, 1.1 μM highest concentration; Table 3; read-out: EC50 (nM), ferroptosis inhibitory activity

| EC50 [nM] | SMILES |
| --- | --- |
| 0.1 to 100 | Cc1c(Nc2ccc(N3CCC(C(F)(F)F)CC3)cc2)ccc2c1OCC(=O)N2 [Compound 568, 8-methyl-7-((4-(4-(trifluoromethyl)piperidin-1-yl)phenyl)amino)-2H-benzo[b] [1,4] oxazin-3(4H)-one] |
| 0.1 to 100 | Cc1cc(N2CCC(C(F)(F)F)CC2)ncc1Nc1ccc2c(c1)OCC(=O)N2 [Compound 453, 7-((4-methyl-6-(4-(trifluoromethyl)piperidin-1-yl)pyridin-3-yl)amino)-2H-benzo[b][1,4]oxazin-3(4H)-one] |
| 0.1 to 100 | COC1(C(F)(F)F)CN(c2ccc(Nc3ccc4c(c3)OCCC(=O)N4)c(C)c2)C1 [Compound 645, 8-[4-[3-methoxy-3-(trifluoromethyl)azetidin-1-yl]-2-methyl-anilino]-3,5-dihydro-2H-1,5-benzoxazepin-4-one] |
| 0.1 to 100 | Cc1cc(N2CCC(C(F)(F)F)CC2)ccc1Nc1ccc2c(c1)CNC(=O)N2 [Compound 535, 6-((2-methyl-4-(4-(trifluoromethyl)piperidin-1-yl)phenyl)amino)-3,4-dihydroquinazolin-2(1H)-one] |
| 0.1 to 100 | Cc1cc(N2CC(C)OC(C)C2)ccc1Nc1cnc2c(c1)OCC(=O)N2C (stereo not drawn) [Compound 457, 7-((4-(2,6-dimethylmorpholino)-2-methylphenyl)amino)-4-methyl-2H-pyrido[3,2-b][1,4]oxazin-3(4H)-one] |
| 0.1 to 100 | Cc1cc(N2CCN(C(=O)C(F)(F)F)[C@@H](C)C2)ccc1Nc1ccc2c(c1)OCC(=O)N2 [Compound 552, (S)-7-((2-methyl-4-(3-methyl-4-(2,2,2-trifluoroacetyl)piperazin-1-yl)phenyl)amino)-2H-benzo[b][1,4]oxazin-3(4H)-one] |
| 1000 to 10000 | Cc1cc(N2CCC(C(F)(F)F)CC2)cc2c1[nH]c1cc3cnn(C(N)=O)c3cc12 [Compound 615, 6-methyl-8-(4-(trifluoromethyl)piperidin-1-yl)pyrazolo[4,3-b]carbazole-1(5H)-carboxamide] |
| 0.1 to 100 | Cc1cc(N2CCC(C(F)(F)F)CC2)ccc1Nc1cc2c(cc1C)NC(=O)CO2 [Compound 512, 6-methyl-7-((2-methyl-4-(4-(trifluoromethyl)piperidin-1-yl)phenyl)amino)-2H-benzo[b][1,4]oxazin-3(4H)-one] |
| 0.1 to 100 | COc1cc(Nc2ccc3c(c2)OCC(=O)N3)ccc1N1CCC(C(F)(F)F)CC1 [Compound 485, 7-((3-methoxy-4-(4-(trifluoromethyl)piperidin-1-yl)phenyl)amino)-2H-benzo[b][1,4]oxazin-3(4H)-one] |
| 0.1 to 100 | Cc1cc(N2CCC2)ccc1Nc1ccc2c(c1)OCC(=O)N2 [Compound 585, 7-((4-(azetidin-1-yl)-2-methylphenyl)amino)-2H-benzo[b][1,4]oxazin-3(4H)-one] |
| 0.1 to 100 | COc1cc(Nc2cnc3c(c2)OCC(=O)N3)c(C)cc1N1CCC(C(F)(F)F)CC1 [Compound 547, 7-((5-methoxy-2-methyl-4-(4-(trifluoromethyl)piperidin-1-yl)phenyl)amino)-2H-pyrido[3,2-b][1,4]oxazin-3(4H)-one] |
| 0.1 to 100 | Cc1cc(N2CC(C)OC(C(F)(F)F)C2)ccc1Nc1ccc2c(c1)OCC(=O)N2 (stereo not drawn) [Compound 562, 7-((2-methyl-4-(2-methyl-6-(trifluoromethyl)morpholino)phenyl)amino)-2H-benzo[b][1,4]oxazin-3(4H)-one] |
| 0.1 to 100 | COC1(C(F)(F)F)CCN(c2ccc(Nc3ccc4c(c3)OCCC(=O)N4)c(C)c2)C1 (stereo not drawn) [Compound 647, 8-((4-(3-methoxy-3-(trifluoromethyl)pyrrolidin-1-yl)-2-methylphenyl)amino)-2,3-dihydrobenzo[b][1,4]oxazepin-4(5H)-one] |
